These molecules were tested against T1, human Cot/Tpl2 kinase (Homo sapiens, UniProt P41279) (assay: Tpl2/Cot kinase assay: GST-MEK1 phosphorylation detected by ELISA (DELFIA Eu)). Settings: 0.4 nM Tpl2, 35 nM GST-MEK1, 50 uM ATP, 1 h at 30° C.
T1 construct: human Cot/Tpl2 kinase construct encoding residues 30-398; 6His (N); made in house; host or cells: Sf9 insect cells, baculovirus system (BD Biosciences)
T1 sequence (P41279 30-398): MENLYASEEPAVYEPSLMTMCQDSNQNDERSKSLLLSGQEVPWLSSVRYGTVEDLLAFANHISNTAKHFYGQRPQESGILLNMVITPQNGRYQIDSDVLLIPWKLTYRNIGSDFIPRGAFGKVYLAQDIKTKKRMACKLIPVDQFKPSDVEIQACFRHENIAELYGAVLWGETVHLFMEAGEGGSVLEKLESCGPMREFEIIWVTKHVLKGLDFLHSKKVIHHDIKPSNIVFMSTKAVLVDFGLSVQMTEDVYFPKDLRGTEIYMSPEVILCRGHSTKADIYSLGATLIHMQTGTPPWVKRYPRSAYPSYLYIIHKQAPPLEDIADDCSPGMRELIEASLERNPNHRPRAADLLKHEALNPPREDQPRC
Format: biochemical
Method in brief: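 His-tagged human Tpl2 from Sf9 cells, Ni-affinity and size-exclusion purified (monomer). 0.4 nM Tpl2 with 35 nM GST-MEK1, 50 uM ATP, MOPS pH 7.2, 1% DMSO, 1 h at 30° C; EDTA stop. MEK1 Ser217/221 phosphorylation detected by anti-phospho-MEK1 and Eu-labelled secondary ELISA; IC50 fitted.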
For N#Cc1ccccc1CNc1cc(C(F)(F)F)c2ncc(C#N)c(Nc3ccc(F)c(Cl)c3)c2c1 [Example 233, 4-[(3-chloro-4-fluorophenyl)amino]-6-[(2-cyanobenzyl)amino]-8-(trifluoromethyl)quinoline-3-carbonitrile], the IC50 was over 40 µM. For N#Cc1ccc(CNc2cc(C(F)(F)F)c3ncc(C#N)c(Nc4ccc(F)c(Cl)c4)c3c2)cc1 [Example 234, 4-[(3-chloro-4-fluorophenyl)amino]-6-[(4-cyanobenzyl)amino]-8-(trifluoromethyl)quinoline-3-carbonitrile], the IC50 was 15.1 µM. N#Cc1cnc2c(C(F)(F)F)cc(NCc3ccccc3F)cc2c1Nc1ccc(F)c(Cl)c1 [Example 235, 4-[(3-chloro-4-fluorophenyl)amino]-6-[(2-fluorobenzyl)amino]-8-(trifluoromethyl)quinoline-3-carbonitrile] showed an IC50 of over 40 µM. Cn1ccnc1CNc1cc(C(F)(F)F)c2ncc(C#N)c(Nc3ccc(F)c(Cl)c3)c2c1 [Example 236, 4-[(3-chloro-4-fluorophenyl)amino]-6-{[(1-methyl-1H-imidazol-2-yl)methyl]amino}-8-(trifluoromethyl)quinoline-3-carbonitrile] gave an IC50 of 0.2 µM. Molecule N#Cc1cnc2c(C(F)(F)F)cc(NCc3cccn3S(=O)(=O)c3ccccc3)cc2c1Nc1ccc(F)c(Cl)c1 [Example 237, 4-[(3-chloro-4-fluorophenyl)amino]-6-({[1-(phenylsulfonyl)-1H-pyrrol-2-yl]methyl}amino)-8-(trifluoromethyl)quinoline-3-carbonitrile] has an IC50 of 24.8 µM. For Cc1cc(CNc2cc(C(F)(F)F)c3ncc(C#N)c(Nc4ccc(F)c(Cl)c4)c3c2)oc1C [Example 238, 4-[(3-chloro-4-fluorophenyl)amino]-6-{[(4,5-dimethyl-2-furyl)methyl]amino}-8-(trifluoromethyl)quinoline-3-carbonitrile], the IC50 was 8.4 µM. For N#Cc1cnc2c(C(F)(F)F)cc(NCc3cncs3)cc2c1Nc1ccc(F)c(Cl)c1 [Example 239, 4-[(3-chloro-4-fluorophenyl)amino]-6-[(1,3-thiazol-5-ylmethyl)amino]-8-(trifluoromethyl)quinoline-3-carbonitrile], the IC50 was 0.78 µM. Work on N#Cc1cnc2c(C(F)(F)F)cc(NCc3cncnc3)cc2c1Nc1ccc(F)c(Cl)c1 [Example 240, 4-[(3-chloro-4-fluorophenyl)amino]-6-[(pyrimidin-5-ylmethyl)amino]-8-(trifluoromethyl)quinoline-3-carbonitrile] yielded an IC50 of 0.19 µM. Work on COc1ncc(CNc2cc(C(F)(F)F)c3ncc(C#N)c(Nc4ccc(F)c(Cl)c4)c3c2)c(OC)n1 [Example 241] yielded an IC50 of over 40 µM. In the case of N#Cc1cnc2c(C(F)(F)F)cc(NCc3cnc(S(=O)(=O)c4ccccc4)s3)cc2c1Nc1ccc(F)c(Cl)c1 [Example 242, 4-[(3-chloro-4-fluorophenyl)amino]-6-({[2-(phenylsulfonyl)-1,3-thiazol-5-yl]methyl}amino)-8-(trifluoromethyl)quinoline-3-carbonitrile], the IC50 is reported as over 40 µM. Molecule N#Cc1cnc2ccc(NCc3cnc(N4CCOCC4)s3)cc2c1Nc1ccc(F)c(Cl)c1 [Example 243, 4-[(3-chloro-4-fluorophenyl)amino]-6-{[(2-morpholin-4-yl-1,3-thiazol-5-yl)methyl]amino}quinoline-3-carbonitrile] has an IC50 of over 40 µM. Molecule N#Cc1cnc2c(C(F)(F)F)cc(NCc3cnc(N4CCOCC4)s3)cc2c1Nc1ccc(F)c(Cl)c1 [Example 244, 4-[(3-chloro-4-fluorophenyl)amino]-6-{[(2-morpholin-4-yl-1,3-thiazol-5-yl)methyl]amino}-8-(trifluoromethyl)quinoline-3-carbonitrile] has an IC50 of over 40 µM. With N#Cc1cnc2ccc(NCc3cnc(S(=O)(=O)c4ccccc4)s3)cc2c1Nc1ccc(F)c(Cl)c1 [Example 245, 4-[(3-chloro-4-fluorophenyl)amino]-6-({[2-(phenylsulfonyl)-1,3-thiazol-5-yl]methyl}amino)quinoline-3-carbonitrile] the IC50 was 0.91 µM.
